According to PMC6792352, “Limited Chemical Structural Diversity Found to Modulate Thyroid Hormone Receptor in the Tox21 Chemical Library” (Environmental Health Perspectives, 2019):
Structures can show the parent of a compound that is named as a salt.

test: in vitro; conditions: rat, gh3-tre-luc cells, AC50 (uM) modified / 1000

Row | Compound | CC50 at 24 h
1 | C=CCC1([C@@H](C)CCC)C(=O)NC(=O)NC1=O [S-(-)-Secobarbital] | > 90 µM
2 | CCCCCCC(=O)CCCCCC/C=C/C[C@@H](O)[C@H](O)[C@@](N)(CO)C(=O)O [Myriocin] | > 50 µM
3 | CO[C@H]1O[C@@H]2O[C@@]3(C)CC[C@H]4[C@H](C)CC[C@@H]([C@H]1C)[C@@]24OO3 [Artemether] | > 50 µM
4 | NP(N)(=O)NC(=O)c1ccc(F)cc1 [Flurofamide] | > 50 µM
5 | CC(C(=O)O)c1ccc2c(c1)Cc1cccnc1O2 (stereo not drawn) [Pranoprofen] | > 50 µM
6 | CC(C)C(O)(c1ccc(OC(F)(F)F)cc1)c1cncnc1 (stereo not drawn) [Flurprimidol] | > 90 µM
7 | C[C@]12CC[C@H](O)CC1=CC[C@@H]1[C@@H]2CC[C@]2(C)C(=O)CC[C@@H]12 [Dehydroepiandrosterone] | > 90 µM
8 | Cc1nc(-c2ccc(OCC(C)C)c(C#N)c2)sc1C(=O)O [Febuxostat] | > 50 µM
9 | O=C(O)CN1C(=O)c2cccc3cccc(c23)C1=O [Alrestatin] | > 50 µM
10 | Cc1cc(CCN2CCN(c3nsc4ccccc34)CC2)cc2c1NC(=O)CC2(C)C [PD 0343701] | 46.9 µM
11 | Cc1cccc2cccnc12 [8-Methylquinoline] | > 90 µM
12 | Cc1c[nH]c(=S)[nH]c1=O [5-Methyl-2-thiouracil] | > 90 µM
13 | CCCOCC(C)OCC(C)O (stereo not drawn) [Butyl dipropasol solvent] | > 90 µM
14 | CC(Cc1cccc(C(F)(F)F)c1)NCCOC(=O)c1ccccc1 (stereo not drawn) [Benfluorex hydrochloride] | 27.3 µM
15 | CN(C)CCOC(=O)C(c1ccccc1)C1(O)CCCC1 (stereo not drawn) [Cyclopentolate hydrochloride] | > 50 µM
16 | CO[C@@]1(NC(=O)[C@H](C(=O)O)c2ccc(O)cc2)C(=O)N2C(C(=O)O)=C(CSc3nnnn3C)CO[C@@H]21 [Moxalactam disodium] | > 20 µM
17 | O=C(Nc1cccc2c(=O)cc(-c3nnn[nH]3)oc12)c1ccc(OCCCCc2ccccc2)cc1 [Pranlukast] | > 50 µM
18 | CCC(=O)NCC[C@@H]1CCc2ccc3c(c21)CCO3 [Ramelteon] | > 50 µM
19 | CCCCC(CC)COCCCN (stereo not drawn) [3-((2-Ethylhexyl)oxy)propylamine] | > 90 µM
20 | Cc1cccc(Nc2ccncc2S(=O)(=O)NC(=O)NC(C)C)c1 [Torsemide] | > 20 µM
21 | CC(C)(C)CC(C)(C)N [2,4,4-Trimethyl-2-pentanamine] | > 90 µM
22 | Nc1ccc(NCCO)c([N+](=O)[O-])c1 [HC Red 3] | 52.7 µM

Row | Compound | CC50 at 24 h
23 | c1ccc2c(c1)Sc1ccccc1N2C[C@@H]1CN2CCC1CC2 [Levomequitazine] | > 50 µM
24 | CNC1(c2ccccc2Cl)CCCCC1=O (stereo not drawn) [Ketamine] | > 50 µM
25 | Cc1cccc(C)c1NC(=O)C1CCCCN1C (stereo not drawn) [Mepivicaine hydrochloride] | > 50 µM
26 | O=C(O)c1cc(C(=O)O)cc([N+](=O)[O-])c1 [5-Nitroisophthalic acid] | > 90 µM
27 | CCC(C)OC(C)CC (stereo not drawn) [Bis(2-butyl) ether] | > 100 µM
28 | CCCNC(C)(C)COC(=O)c1ccccc1 [Meprylcaine hydrochloride] | > 50 µM
29 | CC1(C)S[C@@H]2[C@H](N3C(=O)[C@@H](c4ccccc4)NC3(C)C)C(=O)N2[C@H]1C(=O)O [Hetacillin potassium] | > 50 µM
30 | O=C(O)c1cccc(C(=O)O)n1 [2,6-Pyridinedicarboxylic acid] | > 90 µM
31 | c1cncc([C@@H]2CCCCN2)c1 [L-3-(2'-Piperidyl)pyridine] | > 90 µM
32 | CN1C(=O)CCS(=O)(=O)C1c1ccc(Cl)cc1 (stereo not drawn) [Chlormezanone] | > 90 µM
33 | COc1nc(C)nc(NC(=O)NS(=O)(=O)c2ccccc2OCCCl)n1 [Triasulfuron] | > 90 µM
34 | N#C[C@@H]1CC(F)(F)CN1C(=O)CNC1CC2CCC(C1)N2c1ncccn1 (stereo partly drawn) [SSR162369] | > 90 µM
35 | O=C(O)c1c2ccccc2cc2ccccc12 [9-Anthracenecarboxylic acid] | > 90 µM
36 | O=C1C=CC(=O)C=C1 [1,4-Benzoquinone] | > 90 µM
37 | CCC(=O)Nc1ccc(Cl)c(Cl)c1 [Propanil] | > 90 µM
38 | C=CC(N)CCC(=O)O (stereo not drawn) [Vigabatrin] | > 50 µM
39 | OCC(CO)(CO)COCC(CO)(CO)CO [Dipentaerythritol] | > 90 µM
40 | NC[C@H]1O[C@H](O[C@H]2[C@H](O[C@@H]3O[C@H](CO)[C@@H](O)[C@H]3O)[C@@H](O)[C@H](N)C[C@@H]2N)[C@H](N)[C@@H](O)[C@@H]1O [Ribostamycin sulfate] | > 20 µM
41 | COc1cc2c3cc1Oc1cc(ccc1O)C[C@@H]1c4c(cc(OC)c(O)c4Oc4ccc(cc4)C[C@@H]3N(C)CC2)CC[N+]1(C)C [(+)-Tubocurarine chloride hydrochloride] | > 50 µM
42 | OCCOc1cccc(OCCO)c1 [2,2'-[Benzene-1,3-diylbis(oxy)]diethanol] | > 90 µM
43 | Nc1ccc2cc3ccc(N)cc3nc2c1 [Proflavin hydrochloride] | > 90 µM
44 | C=C(C#N)CCC#N [2-Methylenepentanedinitrile] | > 90 µM

Row | Compound | CC50 at 24 h
45 | C=C(C)C(=O)OCCOC(=O)CC(C)=O [2-[Methacryloyloxy]ethyl acetoacetate] | > 90 µM
46 | CC1(C)O[C@@H]2C[C@H]3[C@@H]4CCC5=CC(=O)C=C[C@]5(C)[C@@]4(F)[C@@H](O)C[C@]3(C)[C@]2(C(=O)CO)O1 [Triamcinolone acetonide] | > 90 µM
47 | CC(C)OC(=O)C(C(=O)OC(C)C)=C1SC=CS1 [Malotilate] | > 50 µM
48 | CCN1/C(=C/C=C/C=C/c2sc3ccccc3[n+]2CC)Sc2ccccc21 [Dithiazanine iodide] | 4.14 µM
49 | CCCCC(CC)C(=O)Cl (stereo not drawn) [2-Ethylhexanoyl chloride] | > 90 µM
50 | COc1nc(C)nc(NC(=O)NS(=O)(=O)c2ccccc2Cl)n1 [Chlorsulfuron] | > 90 µM
51 | CCc1ccc(CC)cc1 [1,4-Diethylbenzene] | > 90 µM
52 | CCOC(=O)CC(CC(=O)OCC)(OC(C)=O)C(=O)OCC [Acetyltriethyl citrate] | > 90 µM
53 | COC(OC)OC [Trimethoxymethane] | > 90 µM
54 | COC(Cc1ccccc1)OC [(2,2-Dimethoxyethyl)benzene] | > 90 µM
55 | COc1cc(C=O)ccc1OC(=O)C(C)C [Vanillin isobutyrate] | > 90 µM
56 | O=C(C[C@H]1NCCC[C@@H]1O)Cn1cnc2cc(Br)c(Cl)cc2c1=O (racemic) [Halofuginone hydrochloride] | > 50 µM
57 | COc1ccc2c3c1O[C@H]1C(=O)CC[C@H]4[C@@H](C2)N(C)CC[C@]314 [Hydrocodone phosphate (2:3) monohydrate] | > 50 µM
58 | CC[N+](CC)(CC)CCOc1ccc(/C=C/c2ccccc2)cc1 [Stilonium iodide] | > 50 µM
59 | Cc1ncc(COP(=O)(O)O)c(C=O)c1O [Pyridoxal phosphate hydrate] | > 50 µM
60 | OC[C@H]1O[C@H](O[C@@]2(CO)O[C@@H](O)[C@H](O)[C@@H]2O)[C@H](O)[C@@H](O)[C@@H]1O [alpha-L-Lyxo-hex-5-ulofuranosyl alpha-D-glucopyranoside] | > 50 µM
61 | CCNc1cc(O)ccc1C [3-Ethylamino-4-methylphenol] | > 90 µM
62 | Fc1ccc([C@@H]2CCNC[C@H]2COc2ccc3c(c2)OCO3)cc1 [Paroxetine] | 10.7 µM
63 | C[Si]1(C)O[Si](C)(C)O[Si](C)(C)O[Si](C)(C)O1 [Octamethylcyclotetrasiloxane] | > 90 µM
64 | CN(C)Cc1ccccc1O [2-((Dimethylamino)methyl)phenol] | > 90 µM
65 | Nc1cc(Cl)c(N=C2NCCN2)c(Cl)c1 [Apraclonidine hydrochloride] | > 50 µM
66 | Nc1ccc(Cl)cc1Cl [2,4-Dichloroaniline] | > 90 µM

same assay, conditions: rat, gh3-tre-luc cells, AC50 (uM) modified / 1000, Tox21_110001=Tox21_112820; viability, 1 nM T3 present, 24 h

Row | Compound | CC50 at 24 h
67 | CCC(N)Cc1c[nH]c2ccccc12 (stereo not drawn) [Etryptamine acetate] | > 100 µM

same assay, conditions: rat, gh3-tre-luc cells, AC50 (uM) modified / 1000, Tox21_110001=Tox21_113138; viability, 1 nM T3 present, 24 h

Row | Compound | CC50 at 24 h
68 | Cc1ccc2c(c1)[C@]13CCCC[C@@H]1[C@H](C2)N(C)CC3 [Dimemorfan phosphate] | > 50 µM

same assay, conditions: rat, gh3-tre-luc cells, AC50 (uM) modified / 1000, Tox21_110001=Tox21_200649; viability, 1 nM T3 present, 24 h

Row | Compound | CC50 at 24 h
69 | CNC(=O)Oc1cc(C)c(N(C)C)c(C)c1 [Mexacarbate] | > 90 µM

same assay, conditions: rat, gh3-tre-luc cells, AC50 (uM) modified / 1000, Tox21_110001=Tox21_200686; viability, 1 nM T3 present, 24 h

Row | Compound | CC50 at 24 h
70 | COc1ccc2c(c1OC)C(=O)O[C@@H]2[C@H]1c2cc3c(cc2CCN1C)OCO3 [Hydrastine] | 6.92 µM

same assay, conditions: rat, gh3-tre-luc cells, AC50 (uM) modified / 1000, Tox21_110001=Tox21_201153; viability, 1 nM T3 present, 24 h

Row | Compound | CC50 at 24 h
71 | C[C@H]1CCCC(=O)CCC/C=C/c2cc(O)cc(O)c2C(=O)O1 [Zearalenone] | 41.1 µM

same assay, conditions: rat, gh3-tre-luc cells, AC50 (uM) modified / 1000, Tox21_110001=Tox21_201656; viability, 1 nM T3 present, 24 h

Row | Compound | CC50 at 24 h
72 | O=C1C(Cl)=C(Cl)C(=O)C(Cl)=C1Cl [Chloranil] | 12.7 µM

same assay, conditions: rat, gh3-tre-luc cells, AC50 (uM) modified / 1000, Tox21_110001=Tox21_202439; viability, 1 nM T3 present, 24 h

Row | Compound | CC50 at 24 h
73 | C=CCc1ccc2c(c1)OCO2 [Safrole] | > 90 µM

same assay, conditions: rat, gh3-tre-luc cells, AC50 (uM) modified / 1000, Tox21_110001=Tox21_202927; viability, 1 nM T3 present, 24 h

Row | Compound | CC50 at 24 h
74 | CCCCON=O [N-Butylnitrite] | > 90 µM

same assay, conditions: rat, gh3-tre-luc cells, AC50 (uM) modified / 1000, Tox21_110001=Tox21_301354; viability, 1 nM T3 present, 24 h

Row | Compound | CC50 at 24 h
75 | O=[N+]([O-])c1ccc(Oc2ccc(C(F)(F)F)cc2[N+](=O)[O-])cc1 [Fluorodifen] | > 90 µM

same assay, conditions: rat, gh3-tre-luc cells, AC50 (uM) modified / 1000, Tox21_110001=Tox21_301477; viability, 1 nM T3 present, 24 h

Row | Compound | CC50 at 24 h
76 | N#Cc1ccc(Cl)cc1 [4-Chlorobenzonitrile] | > 90 µM

same assay, conditions: rat, gh3-tre-luc cells, AC50 (uM) modified / 1000, Tox21_110001=Tox21_303021; viability, 1 nM T3 present, 24 h

Row | Compound | CC50 at 24 h
77 | O=C1C(Cl)=C(Cl)C(=O)C(Cl)=C1Cl [Chloranil] | 20.3 µM

same assay, conditions: rat, gh3-tre-luc cells, AC50 (uM) modified / 1000, Tox21_110001=Tox21_303510; viability, 1 nM T3 present, 24 h

Row | Compound | CC50 at 24 h
78 | C[C@H]1CCCC(=O)CCC/C=C/c2cc(O)cc(O)c2C(=O)O1 [Zearalenone] | 23.5 µM
